Experimental data taken from ChEMBL document CHEMBL3751715, “Design and synthesis of an activity-based protein profiling probe derived from cinnamic hydroxamic acid” (Bioorg Med Chem, 2016).
Converted amounts (≈) assume the structure as drawn. One block for each compound: values may come before it.

Legend:
[1] = Half life in human plasma at 1 to 24 hrs by LC-MS/MS analysis; type: ADME, cell-free
Neutrophil collagenase = Neutrophil collagenase (Homo sapiens, UniProt P22894); assay: Inhibition of human recombinant MMP8 expressed in Escherichia coli using (5-FAM/QXLTM) FRET peptide as substrate
[2] = Half life in mouse plasma at 1 to 24 hrs by LC-MS/MS analysis; type: ADME, cell-free
Histone deacetylase 1 = Histone deacetylase 1 (Homo sapiens, UniProt Q13547); assay: Inhibition of full length C-terminal GST-tagged human HDAC1 expressed in Sf9 cells using (Arg-His-Lys-Lys(Ac)) as substrate by plate reader analysis
[3] = Half life in mouse liver microsomes at 1 uM by LC-MS/MS analysis in presence of NADPH; type: ADME
Histone deacetylase 7 = Histone deacetylase 7 (Homo sapiens, UniProt Q8WUI4); assay: Inhibition of N-terminal GST-tagged human HDAC7 expressed in baculovirus expression system using (Boc-Lys(trifluoroacetyl)-AMC) as substrate by plate reader analysis
[4] = molecular target: Protein deacetylase HDAC6 (Homo sapiens, UniProt Q9UBN7); assay: Inhibition of full length N-terminal GST-tagged human HDAC6 expressed in Sf9 cells using (Arg-His-Lys-Lys(Ac)) as substrate by plate reader analysis
[5] = molecular target: Macrophage metalloelastase (Homo sapiens, UniProt P39900); assay: Inhibition of human recombinant MMP12 expressed in Escherichia coli using (5-FAM/QXLTM) FRET peptide as substrate
Stromelysin-2 = Stromelysin-2 (Homo sapiens, UniProt P09238); assay: Inhibition of human recombinant MMP10 expressed in Escherichia coli using (5-FAM/QXLTM) FRET peptide as substrate
Histone deacetylase 11 = Histone deacetylase 11 (Homo sapiens, UniProt Q96DB2); assay: Inhibition of N-terminal GST-tagged human HDAC11 expressed in baculovirus expression system using (Arg-His-Lys-Lys(Ac)) as substrate by plate reader analysis
Histone deacetylase 9 = Histone deacetylase 9 (Homo sapiens, UniProt Q9UKV0); assay: Inhibition of C-terminal His-tagged human HDAC9 expressed in baculovirus expression system using (Boc-Lys(trifluoroacetyl)-AMC) as substrate by plate reader analysis
Stromelysin-1 = Stromelysin-1 (Homo sapiens, UniProt P08254); assay: Inhibition of human recombinant MMP3 expressed in Escherichia coli using (5-FAM/QXLTM) FRET peptide as substrate
[6] = Inhibition of recombinant HCV genotype 1b NS3/4A protease expressed in Escherichia coli using Ac-DE-D(Edans)-EE-Abu-[COO]-AS-K(Dabcyl)-NH2 as substrate; parameters: species or system Hepatitis C virus subtype 1b
Matrilysin = Matrilysin (Homo sapiens, UniProt P09237); assay: Inhibition of human recombinant MMP7 expressed in Escherichia coli using (5-FAM/QXLTM) FRET peptide as substrate
Interstitial collagenase = Interstitial collagenase (Homo sapiens, UniProt P03956); assay: Inhibition of human recombinant MMP1 expressed in Escherichia coli using (5-FAM/QXLTM) FRET peptide as substrate
[7] = molecular target: Polyamine deacetylase HDAC10 (Homo sapiens, UniProt Q969S8); assay: Inhibition of N-terminal GST-tagged human HDAC10 expressed in Sf9 cells using (Arg-His-Lys-Lys(Ac)) as substrate by plate reader analysis
[8] = molecular target: Matrix metalloproteinase-9 (Homo sapiens, UniProt P14780); assay: Inhibition of human recombinant MMP9 expressed in Escherichia coli using (5-FAM/QXLTM) FRET peptide as substrate
Histone deacetylase 4 = Histone deacetylase 4 (Homo sapiens, UniProt P56524); assay: Inhibition of N-terminal GST-tagged human HDAC4 expressed in baculovirus expression system using (Boc-Lys(trifluoroacetyl)-AMC) as substrate by plate reader analysis
Histone deacetylase 2 = Histone deacetylase 2 (Homo sapiens, UniProt Q92769); assay: Inhibition of full length C-terminal His-tagged human HDAC2 expressed in Sf9 cells using (Arg-His-Lys-Lys(Ac)) as substrate by plate reader analysis
[9] = Half life in mouse liver microsomes at 1 uM by LC-MS/MS analysis in presence of UDPGA; type: ADME
[10] = molecular target: Matrix metalloproteinase-14 (Homo sapiens, UniProt P50281); assay: Inhibition of human recombinant MMP14 expressed in Escherichia coli using (5-FAM/QXLTM) FRET peptide as substrate
Hepatitis C virus [11] = assay: Antiviral activity against HCV assessed as reduction of viral replicon RNA level by RT-qPCR analysis; type: functional, organism-based; conditions: Hepacivirus hominis
[12] = molecular target: Disintegrin and metalloproteinase domain-containing protein 17 (Homo sapiens, UniProt P78536); assay: Inhibition of human recombinant TACE expressed in Sf21 cells using MCA-PLAQAV-Dpa-RSSSR-NH2 as substrate
[13] = Thermodynamic solubility of the compound in DPBS buffer at pH 7.4 after 72 hrs by UV spectrometric analysis; type: physicochemical; conditions: read-out: Therm_solubility
Histone deacetylase 3 = Histone deacetylase 3 (Homo sapiens, UniProt O15379); assay: Inhibition of full length C-terminal His-tagged human HDAC3 expressed in baculovirus expression system using (Arg-His-Lys-Lys(Ac)) as substrate by plate reader analysis
Histone deacetylase 8 = Histone deacetylase 8 (Homo sapiens, UniProt Q9BY41); assay: Inhibition of full length human HDAC8 expressed in Escherichia coli using (Arg-His-Lys(Ac)-Lys(Ac)) as substrate by plate reader analysis
Histone deacetylase 5 = Histone deacetylase 5 (Homo sapiens, UniProt Q9UQL6); assay: Inhibition of full length N-terminal GST-tagged human HDAC5 expressed in Sf9 cells using (Boc-Lys(trifluoroacetyl)-AMC) as substrate by plate reader analysis
[14] = Half life in human liver microsomes at 1 uM by LC-MS/MS analysis in presence of UDPGA; type: ADME
[15] = Half life in human liver microsomes at 1 uM by LC-MS/MS analysis in presence of NADPH; type: ADME
[16] = system: Hepatitis C virus subtype 1b; assay: Inhibition of recombinant HCV genotype 1b NS5B Cdelta55 RNA dependent RNA polymerase at 10 uM incubated for 3 hrs using Oligo-U12 primer, UTP and Poly(A) template by scintillation proximity assay
Collagenase 3 = Collagenase 3 (Homo sapiens, UniProt P45452); assay: Inhibition of human recombinant MMP13 expressed in Escherichia coli using (5-FAM/QXLTM) FRET peptide as substrate
[17] = Cytotoxicity against human HuH7 cells assessed as cell viability after 3 days by CellTiter 96 aqueous one solution cell proliferation assay; type: cell-based, Huh-7
Hepatitis C virus [18] = assay: Antiviral activity against HCV genotype 1b replicon infected in human HuH7 cells after 3 days by luciferase reporter assay; type: functional, organism-based, Hepacivirus hominis; conditions: Huh-7, 72 h
[19] = Therapeutic index, ratio of CC50 for human HuH7 cells to EC50 for HCV genotype 1b replicon; type: cell-based, Huh-7; conditions: read-out: Ratio CC50/EC50
Hepatitis C virus [20] = assay: Antiviral activity against HCV genotype 1b replicon infected in human HuH7 cells at 10 uM after 3 days by luciferase reporter assay; type: functional, Hepacivirus hominis; conditions: Huh-7, 72 h
[21] = Cytotoxicity against human HuH7 cells assessed as inhibition of cell viability at 10 uM after 3 days by CellTiter 96 aqueous one solution cell proliferation assay; type: cell-based, Huh-7; conditions: read-out: Activity

Chain of Neutrophil collagenase (P22894 whole entry): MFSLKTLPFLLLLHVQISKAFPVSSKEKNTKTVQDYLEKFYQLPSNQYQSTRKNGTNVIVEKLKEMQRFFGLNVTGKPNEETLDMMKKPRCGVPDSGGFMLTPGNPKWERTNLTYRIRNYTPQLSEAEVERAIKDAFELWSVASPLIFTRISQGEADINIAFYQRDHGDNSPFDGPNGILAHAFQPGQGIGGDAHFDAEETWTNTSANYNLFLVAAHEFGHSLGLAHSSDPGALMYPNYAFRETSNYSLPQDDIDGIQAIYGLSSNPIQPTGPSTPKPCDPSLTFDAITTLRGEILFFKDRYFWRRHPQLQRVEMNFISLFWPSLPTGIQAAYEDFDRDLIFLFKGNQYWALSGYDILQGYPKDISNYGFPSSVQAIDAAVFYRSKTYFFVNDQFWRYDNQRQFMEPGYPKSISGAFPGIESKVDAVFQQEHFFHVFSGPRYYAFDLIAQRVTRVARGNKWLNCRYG
Chain of Histone deacetylase 8 (Q9BY41 whole entry): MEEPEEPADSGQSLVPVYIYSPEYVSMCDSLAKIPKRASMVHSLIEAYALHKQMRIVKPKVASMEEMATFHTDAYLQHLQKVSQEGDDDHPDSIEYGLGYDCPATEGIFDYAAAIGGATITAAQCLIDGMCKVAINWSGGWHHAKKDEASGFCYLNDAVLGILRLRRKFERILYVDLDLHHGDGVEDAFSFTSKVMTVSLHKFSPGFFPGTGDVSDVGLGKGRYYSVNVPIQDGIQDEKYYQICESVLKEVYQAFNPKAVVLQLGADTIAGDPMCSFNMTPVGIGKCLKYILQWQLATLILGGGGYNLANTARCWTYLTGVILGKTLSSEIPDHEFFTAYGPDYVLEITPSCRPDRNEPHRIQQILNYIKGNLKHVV
Chain of Histone deacetylase 5 (Q9UQL6 whole entry): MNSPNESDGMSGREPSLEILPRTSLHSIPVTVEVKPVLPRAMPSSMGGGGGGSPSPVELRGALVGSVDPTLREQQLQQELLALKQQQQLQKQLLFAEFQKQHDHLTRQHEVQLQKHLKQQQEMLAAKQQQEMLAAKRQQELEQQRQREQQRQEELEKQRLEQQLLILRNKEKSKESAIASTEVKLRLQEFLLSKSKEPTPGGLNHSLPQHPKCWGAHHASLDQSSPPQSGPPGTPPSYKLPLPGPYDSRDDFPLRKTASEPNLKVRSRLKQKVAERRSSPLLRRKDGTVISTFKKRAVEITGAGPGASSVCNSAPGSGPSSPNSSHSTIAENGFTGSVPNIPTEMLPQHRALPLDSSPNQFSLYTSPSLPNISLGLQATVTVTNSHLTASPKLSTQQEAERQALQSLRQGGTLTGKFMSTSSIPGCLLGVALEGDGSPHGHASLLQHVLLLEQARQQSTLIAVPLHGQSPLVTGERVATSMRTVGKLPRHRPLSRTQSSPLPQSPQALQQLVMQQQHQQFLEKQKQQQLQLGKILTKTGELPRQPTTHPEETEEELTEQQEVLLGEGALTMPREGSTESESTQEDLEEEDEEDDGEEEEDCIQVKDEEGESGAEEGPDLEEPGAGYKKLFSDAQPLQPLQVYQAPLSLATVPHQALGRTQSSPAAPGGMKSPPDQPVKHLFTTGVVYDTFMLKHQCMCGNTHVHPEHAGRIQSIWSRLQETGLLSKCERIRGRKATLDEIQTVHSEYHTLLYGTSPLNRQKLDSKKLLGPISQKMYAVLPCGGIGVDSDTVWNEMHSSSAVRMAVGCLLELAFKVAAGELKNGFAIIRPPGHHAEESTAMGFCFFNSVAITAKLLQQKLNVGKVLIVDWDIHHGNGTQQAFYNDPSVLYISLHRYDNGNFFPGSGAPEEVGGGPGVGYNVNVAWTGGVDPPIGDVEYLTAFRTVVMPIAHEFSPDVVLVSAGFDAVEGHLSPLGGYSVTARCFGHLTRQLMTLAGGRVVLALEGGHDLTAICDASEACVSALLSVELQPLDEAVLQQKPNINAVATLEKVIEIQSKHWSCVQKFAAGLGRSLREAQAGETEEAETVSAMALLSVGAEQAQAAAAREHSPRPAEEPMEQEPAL
Chain of Histone deacetylase 11 (Q96DB2 whole entry): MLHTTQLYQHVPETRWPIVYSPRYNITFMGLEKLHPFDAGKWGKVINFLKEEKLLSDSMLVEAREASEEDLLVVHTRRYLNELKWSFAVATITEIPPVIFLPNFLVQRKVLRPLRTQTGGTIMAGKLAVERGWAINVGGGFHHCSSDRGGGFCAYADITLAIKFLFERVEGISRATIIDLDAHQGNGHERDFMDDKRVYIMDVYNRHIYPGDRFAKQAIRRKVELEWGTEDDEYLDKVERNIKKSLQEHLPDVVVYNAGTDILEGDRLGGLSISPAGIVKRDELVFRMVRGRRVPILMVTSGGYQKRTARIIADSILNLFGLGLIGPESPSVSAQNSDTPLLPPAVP
Chain of Histone deacetylase 3 (O15379 whole entry): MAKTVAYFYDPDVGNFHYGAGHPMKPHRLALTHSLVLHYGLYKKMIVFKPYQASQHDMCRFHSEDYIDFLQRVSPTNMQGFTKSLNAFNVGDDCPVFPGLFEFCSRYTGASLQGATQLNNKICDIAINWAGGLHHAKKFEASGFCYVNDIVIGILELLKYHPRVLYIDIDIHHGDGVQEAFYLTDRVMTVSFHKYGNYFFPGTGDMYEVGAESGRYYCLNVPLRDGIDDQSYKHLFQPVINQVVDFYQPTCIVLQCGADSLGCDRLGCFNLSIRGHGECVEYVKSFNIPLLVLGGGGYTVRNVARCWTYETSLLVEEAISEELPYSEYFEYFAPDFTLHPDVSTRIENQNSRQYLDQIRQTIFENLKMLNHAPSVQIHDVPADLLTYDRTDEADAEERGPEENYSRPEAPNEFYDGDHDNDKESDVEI
Chain of Matrilysin (P09237 whole entry): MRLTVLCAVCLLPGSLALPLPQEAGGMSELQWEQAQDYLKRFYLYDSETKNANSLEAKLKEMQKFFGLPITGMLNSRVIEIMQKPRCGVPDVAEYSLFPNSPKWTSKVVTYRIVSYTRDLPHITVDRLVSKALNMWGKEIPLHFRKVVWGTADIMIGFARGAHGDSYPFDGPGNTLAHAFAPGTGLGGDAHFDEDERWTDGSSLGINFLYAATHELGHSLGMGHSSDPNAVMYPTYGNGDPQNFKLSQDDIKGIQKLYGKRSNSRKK
Chain of Protein deacetylase HDAC6 (Q9UBN7 whole entry): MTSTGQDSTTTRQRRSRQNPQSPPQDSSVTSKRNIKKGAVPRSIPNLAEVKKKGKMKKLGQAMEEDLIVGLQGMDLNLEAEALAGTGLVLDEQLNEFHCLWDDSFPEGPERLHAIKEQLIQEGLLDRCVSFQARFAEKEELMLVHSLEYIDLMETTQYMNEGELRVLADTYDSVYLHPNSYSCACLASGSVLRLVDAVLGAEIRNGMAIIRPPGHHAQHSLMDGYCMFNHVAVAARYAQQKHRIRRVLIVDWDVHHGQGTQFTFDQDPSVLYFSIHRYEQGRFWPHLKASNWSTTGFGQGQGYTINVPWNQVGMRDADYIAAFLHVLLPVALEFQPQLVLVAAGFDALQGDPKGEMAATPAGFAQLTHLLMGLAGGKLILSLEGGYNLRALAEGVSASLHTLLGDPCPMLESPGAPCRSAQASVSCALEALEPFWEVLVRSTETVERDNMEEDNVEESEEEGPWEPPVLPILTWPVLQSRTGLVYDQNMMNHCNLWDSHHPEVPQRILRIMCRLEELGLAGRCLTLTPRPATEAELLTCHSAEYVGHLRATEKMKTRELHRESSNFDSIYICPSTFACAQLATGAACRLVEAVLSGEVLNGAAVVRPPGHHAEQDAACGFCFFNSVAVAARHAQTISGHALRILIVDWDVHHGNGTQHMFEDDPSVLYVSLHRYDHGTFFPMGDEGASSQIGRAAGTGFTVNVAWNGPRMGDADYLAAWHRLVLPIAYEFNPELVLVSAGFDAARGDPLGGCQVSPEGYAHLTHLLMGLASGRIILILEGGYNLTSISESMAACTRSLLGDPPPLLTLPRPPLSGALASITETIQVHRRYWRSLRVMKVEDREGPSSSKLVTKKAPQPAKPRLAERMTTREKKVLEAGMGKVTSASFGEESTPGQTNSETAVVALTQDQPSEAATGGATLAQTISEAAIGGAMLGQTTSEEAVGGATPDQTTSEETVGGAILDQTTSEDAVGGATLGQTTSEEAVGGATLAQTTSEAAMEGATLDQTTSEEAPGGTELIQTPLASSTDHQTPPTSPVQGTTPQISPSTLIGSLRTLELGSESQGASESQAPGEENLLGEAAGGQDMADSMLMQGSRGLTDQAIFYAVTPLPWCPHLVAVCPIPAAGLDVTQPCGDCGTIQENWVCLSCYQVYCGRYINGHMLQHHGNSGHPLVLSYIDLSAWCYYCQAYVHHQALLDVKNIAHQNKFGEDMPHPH
Chain of Stromelysin-2 (P09238 whole entry): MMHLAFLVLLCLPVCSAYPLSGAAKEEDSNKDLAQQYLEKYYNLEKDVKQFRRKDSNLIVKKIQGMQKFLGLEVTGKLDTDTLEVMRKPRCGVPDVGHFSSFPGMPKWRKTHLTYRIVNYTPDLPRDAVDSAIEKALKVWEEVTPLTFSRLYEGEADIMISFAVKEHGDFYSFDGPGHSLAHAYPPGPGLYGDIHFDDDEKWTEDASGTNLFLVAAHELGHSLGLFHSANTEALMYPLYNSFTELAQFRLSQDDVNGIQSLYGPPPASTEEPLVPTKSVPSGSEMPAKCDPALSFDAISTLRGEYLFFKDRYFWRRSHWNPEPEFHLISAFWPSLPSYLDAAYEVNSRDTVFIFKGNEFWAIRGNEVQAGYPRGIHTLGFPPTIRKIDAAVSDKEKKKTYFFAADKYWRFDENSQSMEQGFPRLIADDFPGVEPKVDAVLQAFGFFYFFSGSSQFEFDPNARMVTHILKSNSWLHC

- half-life [1]: > 24 h
- IC50 (Neutrophil collagenase): > 100 µM
- half-life [2]: 23.2 h
- IC50 (Histone deacetylase 1): 4.11 µM
- half-life at 1 µM [3]: 0.77 h
- IC50 (Histone deacetylase 7): > 100 µM
- IC50 [4]: 0.183 µM
- IC50 [5]: > 100 µM
- IC50 (Stromelysin-2): > 100 µM
- IC50 (Histone deacetylase 11): 5.53 µM
- IC50 (Histone deacetylase 9): > 100 µM
- IC50 (Stromelysin-1): > 100 µM
- IC50 [6]: > 200 µM
- IC50 (Matrilysin): > 100 µM
- IC50 (Interstitial collagenase): > 100 µM
- IC50 [7]: 6.32 µM
- IC50 [8]: > 100 µM
- IC50 (Histone deacetylase 4): > 100 µM
- IC50 (Histone deacetylase 2): 6.36 µM
- half-life at 1 µM [9]: 0.247 h
- IC50 [10]: > 100 µM
- IC50 [12]: 21.5 µM
- solubility thermodynamic at 72 h [13]: 648 µM (≈ 150 µg/mL)
- IC50 (Histone deacetylase 3): 5.37 µM
- IC50 (Histone deacetylase 8): 0.954 µM
- IC50 (Histone deacetylase 5): 34.7 µM
- half-life at 1 µM [14]: 8.88 h
- half-life at 1 µM [15]: 11.6 h
- inhibition [16]: < 5%
- IC50 (Collagenase 3): > 100 µM
Structure (SMILES): O=C(/C=C/c1ccc(C(F)(F)F)cc1)NO
- Activity (Hepatitis C virus [11]): Dose-dependent effect

- EC50 (Hepatitis C virus [18]): 0.48 µM
Structure (SMILES): O=C(/C=C/c1ccc(C(=O)c2ccccc2)cc1)NO
- CC50 at 72 h [17]: 16 µM
- selectivity ratio [19]: 33

Structure (SMILES): [N-]=[N+]=NCCCNC(=O)CCCC[C@@H]1SC[C@@H]2NC(=O)N[C@@H]21
- inhibition at 10 µM (Hepatitis C virus [20]): < 10%
- inhibition at 72 h, 10 µM [21]: < 5%

- EC50 (Hepatitis C virus [18]): 1.2 µM
Structure (SMILES): C#CCCCC(=O)NCCOCCOCCOc1ccc(C(=O)c2ccc(/C=C/C(=O)NO)cc2)cc1
- CC50 at 72 h [17]: 25 µM
- selectivity ratio [19]: 21

- half-life [1]: > 24 h
- half-life [2]: > 24 h
- half-life at 1 µM [3]: 1.31 h
- half-life at 1 µM [9]: 0.0283 h
- solubility thermodynamic at 72 h [13]: 3350 µM (≈ 1120 µg/mL)
- half-life at 1 µM [14]: 0.0233 h
- half-life at 1 µM [15]: 12.8 h
Structure (SMILES): O=C(NO)c1sc2ccccc2c1S(=O)(=O)c1ccccc1
- Activity (Hepatitis C virus [11]): Dose-dependent effect

Structure (SMILES): C#CCCCC(=O)NCCOCCOCCOc1ccc(C(=O)c2ccc(/C=C/C(=O)O)cc2)cc1
- inhibition at 10 µM (Hepatitis C virus [20]): < 5%
- inhibition at 72 h, 10 µM [21]: < 5%
